ChEMBL document CHEMBL3588776, “Inhibitors of the human neuraminidase enzymes” (Medchemcomm, 2014)

Biological target: T1, Sialidase-3 (Homo sapiens, UniProt Q9UQ49)
T1 sequence (Q9UQ49 whole entry): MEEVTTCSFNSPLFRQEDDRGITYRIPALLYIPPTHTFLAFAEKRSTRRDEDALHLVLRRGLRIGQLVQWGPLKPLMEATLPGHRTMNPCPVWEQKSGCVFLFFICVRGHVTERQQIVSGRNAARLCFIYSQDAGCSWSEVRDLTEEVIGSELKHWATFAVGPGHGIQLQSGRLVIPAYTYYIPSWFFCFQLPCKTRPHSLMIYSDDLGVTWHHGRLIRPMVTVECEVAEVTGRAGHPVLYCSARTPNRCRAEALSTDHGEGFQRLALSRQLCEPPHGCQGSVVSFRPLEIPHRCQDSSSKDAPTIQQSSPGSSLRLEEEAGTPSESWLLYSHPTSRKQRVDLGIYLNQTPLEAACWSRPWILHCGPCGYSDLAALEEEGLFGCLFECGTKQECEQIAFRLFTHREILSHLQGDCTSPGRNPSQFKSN
Assay: Inhibition of human recombinant NEU3 expressed in Escherichia coli pre-incubated for 10 mins before addition of followed by the addition of MUNANA substrate

IC50: 5 µM
SMILES: C#CCCC(=O)N[C@@H]1[C@@H](O)[C@@H](F)[C@](F)(C(=O)O)O[C@H]1[C@H](O)[C@H](O)CO
